Data on eight compounds can be found in PubChem BioAssay AID256 (DTP/NCI, 2004).

Several values for one entry are separate records, joined by “and”; a condition that tells them apart may be missing. Equal entries are not always repeated. Inconclusive results and toxic doses are left out.

The subject of this assay is CD2F1 mice, L1210 leukemia ip, survival T/C. In words: NCI In Vivo Anticancer Drug Screen. Data for tumor model L1210 Leukemia (intraperitoneal) in CD2F1 (CDF1) mice. The note with it: higher = longer survival. The method in brief:
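Activity against a transplanted murine tumor was judged by comparing the compound group with a vehicle group. The outcome in the treated animals was divided by that in the controls.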

The mark [1] stands for this setting: endpoint: mean survival time, dose: 100.0 mg/kg/injection, schedule: Q04DX003 (ip), vehicle: saline.
Setting [2] is: endpoint: mean survival time, dose: 200.0 mg/kg/injection, schedule: Q04DX003 (ip), vehicle: saline.
Where [3] appears, read: endpoint: mean survival time, dose: 400.0 mg/kg/injection, schedule: Q04DX003 (ip), vehicle: saline.

With `Nc1n[nH]c(N)n1`, the T/C runs as follows: (endpoint: mean survival time, dose: 3.2 mg/kg/injection, schedule: Q## X008 (iv), vehicle: water) 100 % of control; (endpoint: mean survival time, dose: 6.3 mg/kg/injection, schedule: Q## X008 (iv), vehicle: water) 103 % of control; (endpoint: mean survival time, dose: 12.5 mg/kg/injection, schedule: Q## X004 (iv), vehicle: water) 100 % of control; (endpoint: mean survival time, dose: 12.5 mg/kg/injection, schedule: Q## X008 (iv), vehicle: water) 102 % of control; (endpoint: mean survival time, dose: 25.0 mg/kg/injection, schedule: Q## X004 (iv), vehicle: water) 104 % of control; (endpoint: mean survival time, dose: 25.0 mg/kg/injection, schedule: Q## X008 (iv), vehicle: water) 101 % of control. Moreover, the T/C is, setting by setting: (endpoint: mean survival time, dose: 50.0 mg/kg/injection, schedule: Q03HX024 (ip), vehicle: saline) 103 % of control; (endpoint: mean survival time, dose: 50.0 mg/kg/injection, schedule: Q## X004 (iv), vehicle: water) 103 % of control; (endpoint: mean survival time, dose: 50.0 mg/kg/injection, schedule: Q## X008 (iv), vehicle: water) 103 % of control; (endpoint: mean survival time, dose: 50.0 mg/kg/injection, schedule: Q## X068 (ip), vehicle: water) 110 % of control; (endpoint: mean survival time, dose: 50.0 mg/kg/injection, schedule: Q#A X002 (iv), vehicle: water) 106 % of control; (endpoint: mean survival time, dose: 100.0 mg/kg/injection, schedule: Q01DX007 (ip), vehicle: saline) 113 % of control. The T/C reads like this: (endpoint: mean survival time, dose: 100.0 mg/kg/injection, schedule: Q01DX009 (ip), vehicle: saline) 104 % of control; (endpoint: mean survival time, dose: 100.0 mg/kg/injection, schedule: Q03DX003 (ip), vehicle: saline) 105 % of control; (endpoint: mean survival time, dose: 100.0 mg/kg/injection, schedule: Q03HX024 (ip), vehicle: saline) 117 % of control and 103 % of control and 112 % of control; under setting [1], 105 % of control; (endpoint: mean survival time, dose: 100.0 mg/kg/injection, schedule: Q## X004 (iv), vehicle: water) 105 % of control; (endpoint: mean survival time, dose: 100.0 mg/kg/injection, schedule: Q## X008 (iv), vehicle: water) 102 % of control. For the same compound, the T/C runs as follows: (endpoint: mean survival time, dose: 100.0 mg/kg/injection, schedule: Q#A X002 (iv), vehicle: water) 96 % of control; (endpoint: mean survival time, dose: 100.0 mg/kg/injection, schedule: Q#A X034 (ip), vehicle: water) 118 % of control; (endpoint: mean survival time, dose: 200.0 mg/kg/injection, schedule: Q01DX017 (ip), vehicle: water) 113 % of control; (endpoint: mean survival time, dose: 200.0 mg/kg/injection, schedule: Q03DX003 (ip), vehicle: saline) 105 % of control; under setting [2], 106 % of control; (endpoint: mean survival time, dose: 200.0 mg/kg/injection, schedule: Q## X004 (iv), vehicle: water) 105 % of control. Besides, the T/C (endpoint: mean survival time, dose: 200.0 mg/kg/injection, schedule: Q## X068 (ip), vehicle: water) is 190 % of control; the T/C (endpoint: mean survival time, dose: 200.0 mg/kg/injection, schedule: Q#A X002 (iv), vehicle: water) was 103 % of control; the T/C (endpoint: mean survival time, dose: 200.0 mg/kg/injection, schedule: Q#A X010 (ip), vehicle: water) is 106 % of control; the T/C (endpoint: mean survival time, dose: 400.0 mg/kg/injection, schedule: Q01DX001 (iv), vehicle: water) was 104 % of control; the T/C (endpoint: mean survival time, dose: 400.0 mg/kg/injection, schedule: Q03DX003 (ip), vehicle: saline) was 113 % of control; the T/C (endpoint: mean survival time, dose: 400.0 mg/kg/injection, schedule: Q03HX024 (ip), vehicle: saline) was 203 % of control and 221 % of control and 237 % of control. Moreover, the T/C reads like this: under setting [3], 106 % of control; (endpoint: mean survival time, dose: 400.0 mg/kg/injection, schedule: Q## X068 (ip), vehicle: water) 116 % of control; (endpoint: mean survival time, dose: 400.0 mg/kg/injection, schedule: Q#A X002 (iv), vehicle: water) 110 % of control; (endpoint: mean survival time, dose: 400.0 mg/kg/injection, schedule: Q#A X010 (ip), vehicle: water) 113 % of control; (endpoint: mean survival time, dose: 400.0 mg/kg/injection, schedule: Q#A X018 (ip), vehicle: water) 203 % of control; (endpoint: mean survival time, dose: 400.0 mg/kg/injection, schedule: Q#A X034 (ip), vehicle: water) 208 % of control. Further, the T/C was 104 % of control (endpoint: mean survival time, dose: 512.0 mg/kg/injection, schedule: Q12HX018 (ip), vehicle: saline); 103 % of control (endpoint: mean survival time, dose: 800.0 mg/kg/injection, schedule: Q01DX001 (iv), vehicle: water); 150 % of control (endpoint: mean survival time, dose: 800.0 mg/kg/injection, schedule: Q01DX017 (ip), vehicle: water); 110 % of control (endpoint: mean survival time, dose: 800.0 mg/kg/injection, schedule: Q#A X002 (iv), vehicle: water); 122 % of control (endpoint: mean survival time, dose: 800.0 mg/kg/injection, schedule: Q#A X010 (ip), vehicle: water); 181 % of control (endpoint: mean survival time, dose: 800.0 mg/kg/injection, schedule: Q#A X018 (ip), vehicle: water). In addition, the T/C is 97 % of control (endpoint: mean survival time, dose: 800.0 mg/kg/injection, schedule: Q#A X034 (ip), vehicle: water); 120 % of control (endpoint: mean survival time, dose: 1024.0 mg/kg/injection, schedule: Q12HX018 (ip), vehicle: saline); 105 % of control (endpoint: mean survival time, dose: 1600.0 mg/kg/injection, schedule: Q01DX001 (iv), vehicle: water); 165 % of control (endpoint: mean survival time, dose: 1600.0 mg/kg/injection, schedule: Q01DX017 (ip), vehicle: water).

On to `CCOC(=O)Nc1cc2c(c(N)n1)N=C(c1ccc3ccccc3c1)CN2`, for which the T/C is, setting by setting: (endpoint: median survival time, dose: 0.93 mg/kg/injection, schedule: Q01DX009 (ip), vehicle: saline with Tween-80) 122 % of control; (endpoint: median survival time, dose: 1.0 mg/kg/injection, schedule: Q01DX009 (ip), vehicle: saline with Tween-80) 112 % of control; (endpoint: median survival time, dose: 1.87 mg/kg/injection, schedule: Q01DX009 (ip), vehicle: saline with Tween-80) 113 % of control; (endpoint: median survival time, dose: 3.75 mg/kg/injection, schedule: Q01DX009 (ip), vehicle: saline with Tween-80) 121 % of control; (endpoint: median survival time, dose: 15.0 mg/kg/injection, schedule: Q01DX009 (ip), vehicle: saline with Tween-80) 113 % of control; (endpoint: median survival time, dose: 16.0 mg/kg/injection, schedule: Q01DX009 (ip), vehicle: saline with Tween-80) 114 % of control.

As for `CC(=O)Nc1ccc(F)cc1`, the T/C was 105 % of control under setting [1], 100 % of control under setting [2] and 95 % of control under setting [3].

Consider `O=C1C2C3CC4C5C3C1C5C1(OCCO1)C42` (stereo not given), for which the T/C (endpoint: mean survival time, dose: 25.0 mg/kg/injection, schedule: Q04DX002 (ip), vehicle: saline with Tween-80) is 107 % of control; the T/C (endpoint: mean survival time, dose: 50.0 mg/kg/injection, schedule: Q04DX002 (ip), vehicle: saline with Tween-80) was 107 % of control; the T/C (endpoint: mean survival time, dose: 100.0 mg/kg/injection, schedule: Q04DX002 (ip), vehicle: saline with Tween-80) is 100 % of control; the T/C (endpoint: mean survival time, dose: 200.0 mg/kg/injection, schedule: Q04DX002 (ip), vehicle: saline with Tween-80) was 107 % of control.

As to `CN(C)C(=O)c1ccc[n+](CC(=O)Nc2ccccc2)c1`, the T/C is, setting by setting: under setting [1], 103 % of control; under setting [2], 101 % of control; under setting [3], 103 % of control.

Consider `O=C1N=C(Oc2ccccc2)SC1=O`, for which the T/C reads like this: (endpoint: mean survival time, dose: 12.5 mg/kg/injection, schedule: Q01DX009 (ip), vehicle: saline with Tween-80) 95 % of control and 104 % of control; (endpoint: mean survival time, dose: 25.0 mg/kg/injection, schedule: Q01DX009 (ip), vehicle: saline with Tween-80) 116 % of control and 101 % of control; (endpoint: mean survival time, dose: 50.0 mg/kg/injection, schedule: Q01DX009 (ip), vehicle: saline with Tween-80) 103 % of control and 106 % of control; (endpoint: mean survival time, dose: 100.0 mg/kg/injection, schedule: Q01DX009 (ip), vehicle: saline with Tween-80) 97 % of control and 101 % of control; (endpoint: mean survival time, dose: 200.0 mg/kg/injection, schedule: Q01DX009 (ip), vehicle: saline with Tween-80) 90 % of control.

With `CNC1=C(C)C(=O)C2=C(C1=O)C(COC(N)=O)C1(OC)C3NC3CN21` (stereo not given), the T/C is, setting by setting: (endpoint: mean survival time, dose: 1.5 mg/kg/injection, schedule: Q01DX001 (ip), vehicle: water) 102 % of control; (endpoint: mean survival time, dose: 3.0 mg/kg/injection, schedule: Q01DX001 (ip), vehicle: water) 100 % of control; (endpoint: mean survival time, dose: 6.0 mg/kg/injection, schedule: Q01DX001 (ip), vehicle: water) 108 % of control; (endpoint: mean survival time, dose: 12.0 mg/kg/injection, schedule: Q01DX001 (ip), vehicle: water) 118 % of control; (endpoint: mean survival time, dose: 24.0 mg/kg/injection, schedule: Q01DX001 (ip), vehicle: water) 124 % of control.

As for `COc1ccc2c(OC)cccc2c1`, the T/C (endpoint: mean survival time, dose: 100.0 mg/kg/injection, schedule: Q04DX003 (ip), vehicle: other) is 102 % of control; the T/C (endpoint: mean survival time, dose: 200.0 mg/kg/injection, schedule: Q04DX003 (ip), vehicle: other) is 112 % of control; the T/C (endpoint: mean survival time, dose: 400.0 mg/kg/injection, schedule: Q04DX003 (ip), vehicle: other) is 101 % of control.
